# Reference: patent US4782074A (priority 1987, dated 1988)
# Columns and labels:
# Format in all cases: in vivo
# Septoria apii = experiment: whole plant or invertebrate; conditions: 336 h, read-out: % Control CLB
# [1] = tested on: Alternaria solani conidia; experiment: Tomato Early Blight control (Example D); conditions: 288 h, tomato seedlings, Bonny Best, inoculated 1 day after spray, relative to untreated check plants, read-out: % Control TEB
# Description: Compounds of the invention were tested for the control of the Tomato Early Blight organism Alternaria solani conidia. Tomato (variety Bonny Best) seedlings of 6- to 7-weeks old were used. The tomato plants were sprayed with a 250-ppm solution of the test compound in an acetone-and-water solution containing a small amount of a nonionic emulsifier. The sprayed plants were inoculated 1 day later with the organism, placed in the environmental chamber and incubated at 66° F. to 68° F. and 100% relative humidity for 24 hours. Following the incubation, the plants were maintained in a greenhouse for about 12 days. Percent disease control was based on the percent disease development on untreated check plants.
# Uromyces phaseoli tipica = experiment: Leaf Rust / Bean Rust control (Example F); conditions: 336 h, pinto bean plants, rated after about 14 days, relative to untreated check plants, read-out: % Control BR
# Description: The Leaf Rust test was made using pinto beans. The pathogen was Uromyces phaseoli tipica. The pinto bean plants were sprayed with a 250-ppm solution of the test compound in an acetone-water mixture containing a nonionic emulsifier. The treated plants were inoculated thereafter with the pathogen and then incubated in an environmental chamber for approximately 20 hours at 100% relative humidity and a temperature of 68° F. to 70° F. The plants were then removed from the chamber, allowed to dry, and then maintained in a greenhouse at a 60% to 80% relative humidity. The rate of infection on the leaves was made after about 14 days. The percent disease control provided by a given test compound was based on the percent disease reduction relative to untreated check plants.
# Erysiphe polygoni = experiment: Bean Powdery Mildew control (Example A); conditions: 240 h, seedling bean plants, inoculated 1 day after spray, 10 days, relative to untreated check plants, read-out: % Control BPM
# Description: The compounds of the invention were tested for the control of the Bean Powdery Mildew organism Erysiphe polygoni. Seedling bean plants were sprayed with a 250-ppm solution of the test compound in acetone, water and a nonionic emusifier. The sprayed plants were then inoculated 1 day later with the organism. The plants were maintained for 10 days at temperatures of 68° F. at night with daytime temperatures of 72° F. to 80° F.; relative humidity was maintained at 40% to 60%. The percent disease control provided by a given test compound was based on the percent disease reduction relative to the untreated check plants.
# Piricularia oryzae = experiment: whole plant or invertebrate; conditions: Pyricularia oryzae, read-out: % Control RB
# Plasmopara viticola = experiment: Grape Downy Mildew control (Example E); conditions: detached grape leaves, cultivar Emperor, relative to untreated check plants, read-out: % Control GDM
# Description: The compounds of the invention were tested for the control of the Grape Downy Mildew organism Plasmopara viticola. Detached leaves, between 70 mm and 85 mm in diameter, 7-week-old Vitis vinifera cultivar Emperor grape seedlings were used as hosts. The leaves were sprayed with a 250-ppm solution of the test compound in acetone. The sprayed leaves were dried, inoculated with a spore suspension of the organism, placed in a humid environmental chamber and incubated at 66° F. to 68° F. and about 100% relative humidity. After incubation for 2 days, the plants were then held in a greenhouse 7 to 9 days; then the amount of disease control was determined. The percent disease control provided by a given test compound was based on the percent disease reduction relative to untreated check plants.
# Phytophthora infestans = experiment: whole plant or invertebrate; conditions: in Solanum lycopersicum, 168 h, read-out: % Control TLB
SMILES,pest or weed control at 250 ppm (Septoria apii) [%],pest or weed control at 250 ppm [1] [%],pest or weed control at 250 ppm (Uromyces phaseoli tipica) [%],pest or weed control at 250 ppm (Erysiphe polygoni) [%],pest or weed control at 625 ppm (Piricularia oryzae) [%],pest or weed control at 250 ppm (Plasmopara viticola) [%],pest or weed control at 250 ppm (Phytophthora infestans) [%]
CCCN(CCOc1c(Cl)cc(Cl)cc1Cl)C(=O)c1ccccn1 [Compound 9],9,0,50,0,10,19,0
CCCN(CCOc1c(C)cc(C)cc1C)C(=O)c1cccnc1 [Compound 14],85,67,0,100,64,0,0
CCCN(CC(C)Cc1ccc(C(C)(C)C)cc1)C(=O)c1cccnc1 (centres unmarked) [Compound 23],29,33,0,100,0,0,7
CCN(CCOc1c(Cl)cc(Cl)cc1Cl)C(=O)c1cccnc1 [Compound 35],98,30,0,100,96,41,0
CCCN(CCOc1c(C)cc(C)cc1C)C(=O)c1cncnc1 [Compound 16],38,83,0,50,36,7,0
O=C(c1cccnc1)N(CCO)CCOc1c(Cl)cc(Cl)cc1Cl [Compound 30],32,17,0,33,0,54,7
CCOCCN(CCOc1c(Cl)cc(Cl)cc1Cl)C(=O)c1cnccn1 [Compound 34],15,0,0,0,38,7,0
CCCN(Cc1c(Cl)cccc1Cl)C(=O)c1cnccn1 [Compound 28],30,27,7,92,0,3,4
"CCCN(CCSc1c(Cl)cccc1Cl)C(=O)c1cccnc1 [Compound 11, N-(n-propyl), N-(3-pyridylcarbonyl) 2-aminoethanethiol 2,6-dichlorophenylthioether]",0,60,0,58,29,13,0
CCCN(CC(C)Cc1ccc(C(C)(C)C)cc1)C(=O)c1cnccn1 (centres unmarked) [Compound 24],17,8,0,72,0,7,4
CCCN(CCCc1ccc(Cl)cc1Cl)C(=O)c1cnccn1 [Compound 26],10,0,3,11,21,13,4
CCCN(CCCc1c(Cl)cccc1Cl)C(=O)c1cnccn1 [Compound 25],8,29,0,28,0,0,0
CCOCCN(CCOc1c(Cl)cc(Cl)cc1Cl)C(=O)c1cccnc1 [Compound 33],54,52,0,88,0,18,0
O=C(c1cnccn1)N(CCO)CCOc1c(Cl)cc(Cl)cc1Cl [Compound 31],0,42,0,0,0,29,0
